COC(=O)c1ccnc(N)c1
solubility (mole fraction)
Conditions	278.15 K	283.15 K	288.15 K	293.15 K	298.15 K	303.15 K	308.15 K	313.15 K	318.15 K	323.15 K
in DMF	0.00726	0.0087	0.0105	0.0126	0.0152	0.0183	0.0216	0.0249	0.0292	0.0339
in acetonitrile	0.00539	0.00665	0.00838	0.0104	0.0127	0.015	0.0177	0.0206	0.0241	0.0277
in ethanol	0.00321	0.00385	0.0047	0.00577	0.00694	0.00821	0.00976	0.0114	0.0132	0.0154
in isopropanol	0.00385	0.0048	0.00601	0.00728	0.00889	0.0104	0.0122	0.0141	0.0163	0.019
in methanol	0.00173	0.0021	0.00255	0.00312	0.00379	0.00453	0.00557	0.00665	0.00798	0.00946
in n-propanol	0.00422	0.00528	0.00655	0.00813	0.00977	0.0117	0.0137	0.0163	0.019	0.0217
in toluene	0.00824	0.00987	0.0122	0.0147	0.0177	0.0208	0.0243	0.0282	0.0327	0.0377
in water	0.000935	0.00117	0.00142	0.00178	0.00217	0.00258	0.00302	0.00356	0.00416	0.00489
